Common to all, as to assay type: cell-based
Assay [1] can be described thus: Hoechst 33342 nuclear staining (48 h read-out). The gist of the method: (§1)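 Adherent cells pre-spread 24 h before dosing, suspension cells dosed at seeding; compounds at 0.001 μM-10 μM final, 48 h at culture conditions. Hoechst 33342 (2-5 μg/ml) added for 30 min, then fluorescence microscopy scoring of apoptotic nuclear fraction and apoptosis-specific morphology, reported as scores A-D.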

In assay [2] the test system is tumor cells. Description: Hoechst 33342 nuclear staining (48 h read-out). The method, boiled down: as §1
Assay [3] is described as follows: MTS proliferation assay (72 h read-out). As to conditions: MRC5 cells. The method, boiled down:
(§2)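 Tumour cells (1.5×10^3–10^4 per well) were seeded 24 h before compound addition, then exposed to 0.001–10 μM final compound for 72 h under culture conditions. MTS reagent was added for a further 3 h, absorbance was read at 492 nm, and results were binned into scores A–D.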

For assay [4], the system named is tumor cells. Description: MTS proliferation assay (72 h read-out). The method, boiled down:
as §2

Assay [5] in a line: Mitochondrial membrane potential, JC-1 (read-out 48 h). As to conditions: PBL, JC-1, 48 h. The method, boiled down: (§3)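 Tumor cells were treated with test compounds (adherent cells after 24 h of attachment, suspension cells immediately), medium holding up to 5% DMSO. After 48 h, JC-1 (2-5 μg/ml in added medium) was applied for 30 min. Fluorescence microscopy (FITC/TRITC filters) scored the fraction of cells with dissipated mitochondrial membrane potential as categories A-D.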

Assay [6] relates to tumor cells. Described as above. Particulars: JC-1, 48 h. The method, boiled down:
as §3

Where [7] appears, read: MRC5 cells, read-out: Hoechst 33342 nuclear staining EC50, MRC5.
[8] abbreviates: PBL, read-out: Hoechst 33342 nuclear staining EC50, PBL.
Where [9] appears, read: HeLa cells, read-out: Hoechst 33342 nuclear staining EC50, HeLa.
Setting [10] is: Jily cells, read-out: Hoechst 33342 nuclear staining EC50, Jily.
Where [11] appears, read: Jurkat cells, read-out: Hoechst 33342 nuclear staining EC50, Jurkat.
Where [12] appears, read: HT1080 cells, read-out: MTS proliferation assay IC50, HT1080.
Setting [13] is: HeLa cells, read-out: MTS proliferation assay IC50, HeLa.
[14] abbreviates: Jily cells, read-out: MTS proliferation assay IC50, Jily.
The mark [15] stands for this setting: HeLa cells, read-out: Mitochondrial membrane potential (read-out 48 h) HeLa.
Setting [16] is: Jily cells, read-out: Mitochondrial membrane potential (read-out 48 h) Jily.
Setting [17] is: Jurkat cells, read-out: Mitochondrial membrane potential (read-out 48 h) Jurkat.
Setting [18] is: MCF7 cells, read-out: Mitochondrial membrane potential (read-out 48 h) MCF7.
Setting [19] is: Jurkat cells, read-out: MTS proliferation assay IC50, Jurkat.

SMILES strings stand for the structures. Where two headings read alike, the source gives them in different places. Bounds are passed on as bounds.

As for `CCOc1ccc(F)cc1C(=O)c1cc2cc(CN(CC)CC)ccc2o1` [Example 74], the EC50 in assay [1] (setting [7]), in assay [1] (setting [8]), in assay [2] (setting [9]), in assay [2] (setting [10]), in assay [2] (setting [11]) and in assay [5] was above 1000 nM each time. The EC50 in assay [6] (setting [15]), in assay [6] (setting [16]), in assay [6] (setting [17]) and in assay [6] (setting [18]) was above 1000 nM throughout. Further, the IC50 in assay [3], in assay [4] (setting [12]), in assay [4] (setting [13]) and in assay [4] (setting [14]) was above 1000 nM in each case.
In the case of `CCNc1ncccc1C(=O)c1oc2ccc(Cl)cc2c1N` [Example 76], the EC50 in assay [1] (setting [7]), in assay [1] (setting [8]), in assay [2] (setting [9]), in assay [2] (setting [10]), in assay [2] (setting [11]) and in assay [5] was above 1000 nM throughout. Further, the EC50 in assay [6] (setting [15]), in assay [6] (setting [16]), in assay [6] (setting [17]) and in assay [6] (setting [18]) was above 1000 nM throughout. The IC50 in assay [3], in assay [4] (setting [12]), in assay [4] (setting [13]) and in assay [4] (setting [14]) was above 1000 nM in each case.
On to `CN(C)c1ncccc1C(=O)c1oc2ccc(Cl)cc2c1N` [Example 77], for which the EC50 in assay [1] (setting [7]) was above 1000 nM; in assay [1] (setting [8]) it was above 1000 nM; in assay [2] (setting [9]), above 1000 nM; in assay [2] (setting [10]), 100 to 1000 nM; in assay [2] (setting [11]), 100 to 1000 nM; in assay [5], above 1000 nM. Further, the EC50 in assay [6] (setting [15]) was above 1000 nM; in assay [6] (setting [16]) it was 100 to 1000 nM; in assay [6] (setting [17]), 100 to 1000 nM; in assay [6] (setting [18]) it was above 1000 nM. In addition, the IC50 in assay [3] is above 1000 nM; in assay [4] (setting [12]), above 1000 nM; in assay [4] (setting [13]) it was above 1000 nM; in assay [4] (setting [14]), 100 to 1000 nM.
In the case of `Nc1c(C(=O)c2cccnc2N2CCCC2)oc2ccc(Cl)cc12` [Example 79], the EC50 in assay [1] (setting [7]) is above 1000 nM; in assay [1] (setting [8]), above 1000 nM; in assay [2] (setting [9]), above 1000 nM; in assay [2] (setting [10]) it was above 1000 nM; in assay [2] (setting [11]) it was 100 to 1000 nM; in assay [5], above 1000 nM. Besides, the EC50 in assay [6] (setting [15]) was above 1000 nM; in assay [6] (setting [16]), 100 to 1000 nM; in assay [6] (setting [17]) it was 100 to 1000 nM; in assay [6] (setting [18]), above 1000 nM. Further, the IC50 in assay [3] is above 1000 nM; in assay [4] (setting [12]), 100 to 1000 nM; in assay [4] (setting [13]), 100 to 1000 nM; in assay [4] (setting [14]) it was 100 to 1000 nM; in assay [4] (setting [19]), 100 to 1000 nM.
On to `CCN(CC)c1ncccc1C(=O)c1oc2ccc(Cl)cc2c1N` [Example 81], for which the EC50 is above 1000 nM in assay [1] (setting [7]); above 1000 nM in assay [1] (setting [8]); 100 to 1000 nM in assay [2] (setting [9]); 100 to 1000 nM in assay [2] (setting [10]); 100 to 1000 nM in assay [2] (setting [11]); above 1000 nM in assay [5]. Moreover, the EC50 was above 1000 nM in assay [6] (setting [15]), 100 to 1000 nM in assay [6] (setting [16]), 10 to 100 nM in assay [6] (setting [17]) and above 1000 nM in assay [6] (setting [18]). Further, the IC50 was 100 to 1000 nM in assay [3]; 10 to 100 nM in assay [4] (setting [12]); 100 to 1000 nM in assay [4] (setting [13]); 100 to 1000 nM in assay [4] (setting [14]); 10 to 100 nM in assay [4] (setting [19]).
With `CC1CN(c2ncccc2C(=O)c2oc3ccc(Cl)cc3c2N)CC(C)O1` (stereo not drawn) [Example 83], the EC50 in assay [1] (setting [7]) is 100 to 1000 nM; in assay [1] (setting [8]) it was above 1000 nM; in assay [2] (setting [9]) it was 100 to 1000 nM; in assay [2] (setting [10]) it was 100 to 1000 nM; in assay [2] (setting [11]), 10 to 100 nM; in assay [5], above 1000 nM. The EC50 in assay [6] (setting [15]) fell in the range of 100 to 1000 nM; in assay [6] (setting [16]), 100 to 1000 nM; in assay [6] (setting [17]) it was 10 to 100 nM; in assay [6] (setting [18]), 100 to 1000 nM. Besides, the IC50 in assay [3] was 10 to 100 nM; in assay [4] (setting [12]) it was 10 to 100 nM; in assay [4] (setting [13]), 100 to 1000 nM; in assay [4] (setting [14]), 10 to 100 nM; in assay [4] (setting [19]), 10 to 100 nM.

The values above are taken from patent US8486996B2, “Aroylfuranes and aroylthiophenes” (Basilea Pharmaceutica AG, priority 2006, dated 2013).
